Reference: ChEMBL document CHEMBL1136563, “Pharmacophore-based discovery of substituted pyridines as novel dopamine transporter inhibitors” (Bioorg Med Chem Lett, 2003)

Legend:
[1] = target: Sodium-dependent serotonin transporter (Homo sapiens, UniProt P31645); assay: Inhibition of [3H]-5-HT uptake evaluated at the Serotonin transporter
[2] = target: Sodium-dependent noradrenaline transporter (Homo sapiens, UniProt P23975); assay: Inhibition of [3H]-NE uptake evaluated at the monoamine transporter (NET)
[3] = target: T1, Sodium-dependent dopamine transporter (Homo sapiens, UniProt Q01959); assay: Affinity to displace binding of [3H]WIN-35428 to dopamine transporter
[4] = target: Sodium-dependent dopamine transporter (Rattus norvegicus, UniProt P23977); assay: Inhibition of reuptake of DA into striatal nerve endings (synaptosomes); assay type: subcellular, Brain
[5] = target: T1, Sodium-dependent dopamine transporter; assay: Inhibition of [3H]DA uptake evaluated at the dopamine transporter

Row | SMILES | Ki [1] | Ki [2] | Ki [3] | Ki [4] | Ki [5]
1 | c1ccc(C(c2ccccc2)c2ccccn2)cc1 | 35000 nM | 5530 nM | 742 nM | – | –
2 | CN(C)CCC(C#N)(c1ccccc1)c1ccccc1 | – | – | – | > 1000 nM | –
3 | N#Cc1c(Cl)nnc(-c2ccccc2)c1-c1ccccc1 | – | – | – | > 1000 nM | –
4 | c1ccc(CC(c2ccccc2)c2ccncc2)cc1 (configuration not stated) | 910 nM | 393 nM | 99 nM | – | 263 nM
5 | Clc1ccccc1/C=C(/c1ccccc1)c1ccccn1 | – | – | – | > 1000 nM | –
6 | CN=C=C(c1ccccc1)c1ccccc1 | – | – | – | > 1000 nM | –
7 | c1cncc(-c2c3ccccc3cc3ccccc23)c1 | > 10000 nM | > 10000 nM | > 10000 nM | – | > 10000 nM
8 | c1ccc(Cc2ccnc(Cc3ccccc3)c2)cc1 | – | – | – | 2300 nM | –
9 | c1ccc(-c2nnnn2-c2cnc3ccccc3c2)cc1 | – | – | – | > 1000 nM | –
10 | c1ccc(Cc2ccncc2)cc1 | > 10000 nM | > 10000 nM | > 10000 nM | – | > 10000 nM
11 | Clc1cnc(-c2ccccc2)n1Cc1ccccc1 | – | – | – | > 1000 nM | –
12 | c1ccc(C(c2ccccc2)c2cccnc2)cc1 | 12600 nM | 7320 nM | 780 nM | – | 860 nM
13 | c1ccc2cc(-c3nnnn3-c3cnc4ccccc4c3)ccc2c1 | – | – | – | > 1000 nM | –
14 | c1ccc(C(c2ccccc2)c2ccncc2)cc1 | 1160 nM | 3460 nM | 79 nM | 200 nM | 255 nM
15 | CN=C=C(c1ccc(Cl)cc1)c1ccc(Cl)cc1 | – | – | – | > 1000 nM | –
16 | c1ccc2c(-c3ccncc3)c3ccccc3cc2c1 | > 10000 nM | > 10000 nM | > 10000 nM | – | > 10000 nM
